Source: patent US20260232851A1, “METHODS FOR THE DETECTION AND DIAGNOSIS OF CANCERS ASSOCIATED WITH OVEREXPRESSION OF PSMA RECEPTOR” (CLARITY PHARMACEUTICALS LIMITED, priority 2023, published 2026)
Entries after “also recorded” stand apart in the source; their conditions may differ.

How the values were obtained:
[1] = target: T1, PSMA receptor (Homo sapiens, UniProt Q04609); experiment: PET/CT lesion intensity (SUVmax, SUVmean, TTBR) in patients with untreated primary prostate cancer; assay type: in vivo; settings: for SUVmax Median Difference / SUVmean Median Difference / TTBR Median Difference: ^64Cu vs ^68Ga; for Tumor to background ratio compared between ^64Cu-Sar-bisPSMA and ^68Ga-PSMA-11 (words): concordant lesions, FIG. 6; for Tumor to background ratio compared between ^64Cu-Sar-bisPSMA and ^68Ga-PSMA-11 (words) / SUVmean of lesions compared between ^64Cu-Sar-bisPSMA and ^68Ga-PSMA-11 (words) / SUVmax of lesions compared between ^64Cu-Sar-bisPSMA and ^68Ga-PSMA-11 (words): two readers; for SUVmean of lesions compared between ^64Cu-Sar-bisPSMA and ^68Ga-PSMA-11 (words) / SUVmax of lesions compared between ^64Cu-Sar-bisPSMA and ^68Ga-PSMA-11 (words): same subjects; for SUVmean of lesions compared between ^64Cu-Sar-bisPSMA and ^68Ga-PSMA-11 (words): FIG. 5; for SUVmax of lesions compared between ^64Cu-Sar-bisPSMA and ^68Ga-PSMA-11 (words): FIGS. 2, 4
T1 construct: localises at sites that overexpress the PSMA receptor and are indicative of a cancer; from tissue; host or cells: Primary prostate cancer and metastatic lesions (lymph node, bone, prostatic bed) in living patients
Procedure: Patients with untreated, histopathology-proven, intermediate- to high-risk PC, planned for radical prostatectomy underwent ^68Ga-PSMA-11 PET/CT per institutional practice and were subsequently allocated to 1 out of 3 dose cohorts (1:1:3) to receive either 100 MBq, 150 MBq or 200 MBq of ^64Cu-SAR-bisPSMA, respectively. The specified dose of ^64Cu-Sar-bisPSMA was administered to each patient as a single bolus IV injection. […] PET/CT scans at other times after injection of the compound were acquired as required.
Patients were scanned using the standard clinical whole-body PET/CT acquisition protocol defined for each clinical site and in accordance with the Image Acquisition Manual, which contains details of scan acquisition, processing parameters and quality assurance procedures. The same scanner was used for each visit. Typical imaging acquisition parameters are below:
Two independent, blinded, central readers assessed the detection of primary PC on the 200 MBq ^64Cu-SAR-bisPSMA PET/CTs as the primary endpoint. To compare the intensity of lesions on ^68Ga-PSMA-11 and ^64Cu-SAR-bisPSMA PET, both readers determined the SUVs (SUVmax, SUVmean) and tumour-to-background ratio (ratio of lesion SUVmax and background SUVmean) in up to 5 concordant lesions between ^68Ga-PSMA-11 and ^64Cu-SAR-bisPSMA PET/CT as an exploratory endpoint.
Tables 1 and 2 below compare SUV parameters obtained from PET/CT images after administration of ^68Ga-PSMA-11 and a dose of 200 MBq of ^64Cu-SAR-bisPSMA from each reader.
Tables 3 and 4 below compare SUV parameters obtained from PET/CT images after administration of ^68Ga-PSMA-11 (200 MBq) and ^64Cu-SAR-bisPSMA (200 MBq) from each reader.

[2] = test system: LNCap tumor; experiment: Ex vivo tumor uptake in LNCap tumor bearing NSG mice
From the text: Ex vivo tumor uptake expressed as percentage injected activitiy per gram of tissue (% lAg) (mean±/−SEM, n=3/group) in LNCap tumor bearing NSG mice following injection of either monomeric [^64Cu]Cu-SarPSMA (2 MBq, 0.9 nmol of peptide) or dimeric [^64Cu]Cu-Sar-bisPSMA (2 MBq, 0.2 nmol of peptide).

[3] = Table 1, first reader, 200 MBq ^64Cu-SAR-bisPSMA, N=17
[4] = Table 2, second reader, 200 MBq ^64Cu-SAR-bisPSMA, N=13

T1 sequence (Q04609 whole entry): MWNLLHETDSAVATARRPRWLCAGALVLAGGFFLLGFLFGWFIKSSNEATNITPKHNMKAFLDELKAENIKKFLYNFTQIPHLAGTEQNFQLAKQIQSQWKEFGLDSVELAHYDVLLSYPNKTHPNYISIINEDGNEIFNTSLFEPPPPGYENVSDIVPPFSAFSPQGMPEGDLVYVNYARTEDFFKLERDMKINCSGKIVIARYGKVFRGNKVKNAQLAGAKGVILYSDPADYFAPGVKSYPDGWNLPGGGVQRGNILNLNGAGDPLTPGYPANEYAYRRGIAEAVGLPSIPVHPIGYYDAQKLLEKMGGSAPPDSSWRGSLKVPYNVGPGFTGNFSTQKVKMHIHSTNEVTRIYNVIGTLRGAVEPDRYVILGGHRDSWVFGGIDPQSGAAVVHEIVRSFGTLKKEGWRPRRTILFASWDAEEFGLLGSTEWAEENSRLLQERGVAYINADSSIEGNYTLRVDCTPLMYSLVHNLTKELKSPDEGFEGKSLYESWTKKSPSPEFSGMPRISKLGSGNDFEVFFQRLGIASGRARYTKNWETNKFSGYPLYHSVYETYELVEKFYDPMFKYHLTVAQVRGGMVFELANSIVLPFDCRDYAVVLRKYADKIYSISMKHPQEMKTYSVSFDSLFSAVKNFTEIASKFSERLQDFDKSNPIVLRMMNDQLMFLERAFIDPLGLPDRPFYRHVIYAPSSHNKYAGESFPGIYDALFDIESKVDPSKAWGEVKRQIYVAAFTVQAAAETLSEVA

## Sar-bisPSMA [^64Cu-SAR-bisPSMA]
[1]; [3]
  SUVmax Max: 100
  SUVmax Median: 31.40
  SUVmax Min: 8
  SUVmean Max: 69.9
  SUVmean Mean: 27.25
  SUVmean Median: 21.76
  SUVmean Min: 5.5
  TTBR (Tumour-to-Background Ratio) Mean: 77.25
  TTBR Max: 227.3
  TTBR Median: 49.07
  TTBR Min: 10.3
[1]; Table 1, first reader, N=17
  SUVmax Median Difference: 14.85
  SUVmean Median Difference: 9.64
  TTBR Median Difference: 27.15
[1]; Table 1, first reader, ^68Ga-PSMA-11 vs 200 MBq ^64Cu-SAR-bisPSMA PET/CT, concordant lesions averaged per participant, N=17
  SUVmax Mean: 40.28
[1]; [4]
  SUVmax Max: 100
  SUVmax Median: 41.00
  SUVmax Min: 6.1
  SUVmean Max: 69.9
  SUVmean Mean: 31.78
  SUVmean Median: 28.07
  SUVmean Min: 4.4
  TTBR (Tumour-to-Background Ratio) Mean: 86.40
  TTBR Max: 212.8
  TTBR Median: 76.34
  TTBR Min: 6.7
[1]; Table 2, second reader, N=13
  SUVmax Median Difference: 27.03
  SUVmean Median Difference: 18.44
  TTBR Median Difference: 45.37
[1]; Table 2, second reader, ^68Ga-PSMA-11 vs 200 MBq ^64Cu-SAR-bisPSMA PET/CT, concordant lesions averaged per participant, N=13
  SUVmax Mean: 47.37
[1]; Table 3, first reader, N=28
  SUVmax Max: 100.00
  SUVmax Median: 30.26
  SUVmax Min: 8.00
  SUVmean Max: 69.90
  SUVmean Mean: 27.41
  SUVmean Median: 21.20
  SUVmean Min: 5.40
  TTBR (Tumour-to-Background Ratio) Mean: 83.38
  TTBR Max: 294.10
  TTBR Median: 53.55
  TTBR Min: 10.30
  SUVmax Median Difference: 14.23
  SUVmean Median Difference: 9.26
  TTBR Median Difference: 27.94
[1]; Table 3, first reader, ^68Ga-PSMA-11 (200 MBq) vs ^64Cu-SAR-bisPSMA (200 MBq) PET/CT, lesions averaged per participant, N=28
  SUVmax Mean: 41.66
[1]; Table 4, second reader, N=16
  SUVmax Max: 100
  SUVmax Median: 41.66
  SUVmax Min: 6.1
  SUVmean Max: 69.9
  SUVmean Mean: 33.24
  SUVmean Median: 28.4
  SUVmean Min: 4.4
  TTBR (Tumour-to-Background Ratio) Mean: 93.86
  TTBR Max: 243.9
  TTBR Median: 78.37
  TTBR Min: 6.7
  SUVmax Median Difference: 27.99
  SUVmean Median Difference: 18.78
  TTBR Median Difference: 46.93
[1]; Table 4, second reader, ^68Ga-PSMA-11 (200 MBq) vs ^64Cu-SAR-bisPSMA (200 MBq) PET/CT, lesions averaged per participant, N=16
  SUVmax Mean: 49.73
[1]; listed as 64Cu-Sar-bisPSMA
  Tumor to background ratio compared between ^64Cu-Sar-bisPSMA and ^68Ga-PSMA-11 (words): higher
  SUVmean of lesions compared between ^64Cu-Sar-bisPSMA and ^68Ga-PSMA-11 (words): greater
  SUVmax of lesions compared between ^64Cu-Sar-bisPSMA and ^68Ga-PSMA-11 (words): higher SUVmax; also recorded: greater
[1]; listed as 64Cu-SarbisPSMA
  Tumor to background ratio compared between ^64Cu-Sar-bisPSMA and ^68Ga-PSMA-11 (words): higher tumour to background ratio
  SUVmax of lesions compared between ^64Cu-Sar-bisPSMA and ^68Ga-PSMA-11 (words): higher SUVmax
[1]
  SUVmean of lesions compared between ^64Cu-Sar-bisPSMA and ^68Ga-PSMA-11 (words): consistently higher
  SUVmax of lesions compared between ^64Cu-Sar-bisPSMA and ^68Ga-PSMA-11 (words): consistently higher
[1]; listed as 64Cu-Sar-bis-PSMA
  SUVmean of lesions compared between ^64Cu-Sar-bisPSMA and ^68Ga-PSMA-11 (words): higher SUVmean
[2]; 6 and 24 hours after administration
  Amount retained at the tumor site relative to ^64Cu-SarPSMA (FIG. 1): far greater
[2]; 1 hour after administration, 2 MBq, n=3/group
  Ex vivo tumor uptake relative to monomeric ^64Cu-Sar-PSMA (FIG. 1): approximately double
[2]; mouse, in vivo
  Uptake and retention at tumors, dimer versus monomer (FIG. 1): higher uptake and retention
